Experimental data taken from patent US7638509B2, “Diene compounds and formulations” (priority 2003, dated 2009).
Substitutions are numbered along the chain they refer to.

How the values were obtained:
[1] = target: T1, wild-type AR (Homo sapiens, UniProt P10275); experiment: Competitive [3H]-R1881 ligand binding assay, extracts of COS-1 transfected with wild-type AR; design: expressed in transfected cells; host or cells: COS-1; conditions: 1 nM [3H]-R1881, unlabeled ligand 1-10,000 nM, relative to DHT
T1 sequence (P10275 1-920): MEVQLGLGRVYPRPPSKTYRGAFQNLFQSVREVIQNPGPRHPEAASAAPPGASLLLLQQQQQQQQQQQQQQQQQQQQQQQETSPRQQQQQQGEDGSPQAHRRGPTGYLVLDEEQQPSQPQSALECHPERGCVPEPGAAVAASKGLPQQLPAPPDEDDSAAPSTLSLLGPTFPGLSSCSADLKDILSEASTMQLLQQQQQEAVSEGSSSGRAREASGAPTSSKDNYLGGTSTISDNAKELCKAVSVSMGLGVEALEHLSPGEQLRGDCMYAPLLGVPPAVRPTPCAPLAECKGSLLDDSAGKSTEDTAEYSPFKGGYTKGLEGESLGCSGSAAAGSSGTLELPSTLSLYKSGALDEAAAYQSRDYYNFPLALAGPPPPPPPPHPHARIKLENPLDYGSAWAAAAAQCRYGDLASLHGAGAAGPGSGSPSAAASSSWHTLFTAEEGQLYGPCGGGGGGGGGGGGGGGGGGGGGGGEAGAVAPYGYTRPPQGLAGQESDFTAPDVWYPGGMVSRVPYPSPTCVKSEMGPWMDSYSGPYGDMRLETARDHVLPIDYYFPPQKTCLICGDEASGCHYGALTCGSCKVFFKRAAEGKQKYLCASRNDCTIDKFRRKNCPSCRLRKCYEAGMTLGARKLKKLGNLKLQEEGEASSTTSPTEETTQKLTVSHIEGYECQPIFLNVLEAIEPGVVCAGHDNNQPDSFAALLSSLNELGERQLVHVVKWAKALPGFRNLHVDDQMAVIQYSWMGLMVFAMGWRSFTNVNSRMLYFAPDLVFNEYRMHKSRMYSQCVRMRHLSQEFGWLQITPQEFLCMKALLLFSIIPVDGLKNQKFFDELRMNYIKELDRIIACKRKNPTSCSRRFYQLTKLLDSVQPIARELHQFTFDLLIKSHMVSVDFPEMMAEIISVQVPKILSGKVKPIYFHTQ
Procedure: Ligand Binding Assay. Whole cell extracts from COS-1 with transient transfection of pSG5-AR, or LNCaP without transfection, were incubated for 2 h at 37° C. with 1 nM [^3H]-synthetic androgen methyltrienolone (R1881) in the presence and absence of increasing concentrations (1-10,000 nM) of unlabeled ligands. Then, hydroxyapatite (Bio-Rad) was added and stirred for 15 min at 4° C. After centrifugation and washing, radioactivity was determined by scintillation counting.
Clinically available antiandrogens have an affinity for the AR, allowing a competition with androgens for binding. To determine whether ADEK has this common feature of AR antagonists, the competitive androgen binding assay was performed.

[2] = target: T2, mutant AR (Homo sapiens, UniProt P10275, T878A); experiment: AR transcription, MMTV-Luc reporter in LNCaP cells; type: cell-based; conditions: MMTV-Luc
T2 construct: LNCaP without transfection; endogenous in cells; host or cells: LNCaP
T2 sequence (P10275 1-920 T878A): T1 sequence (P10275 1-920) with T878A
Procedure: (§1) Cell Culture, Transfection, and Reporter Gene Assay. The human prostate cancer cell lines, LNCaP, PC-3, and DU145, and non-prostate cancer cell line COS-1 were maintained in RPMI or Dulbecco's modified Eagle's medium (DMEM) (Life Technologies) supplemented with 10% fetal bovine serum (FBS). […] Briefly, cells seeded to reach a density of 50-60% confluence in 12 well tissue culture plates were transfected with 1.5 μg of DNA according to “SuperFect transfection” instructions (Qiagen). After 2-3 h incubation, cells were treated with medium supplemented with charcoal-stripped FBS containing either ethanol or ligands for 24 h. The cells were then harvested and whole cell extracts were used for Luc assay. The Luc activity was determined using a Dual-Luciferase Reporter Assay System (Promega) and luminometer.
(§2) The pSG5-AR was co-transfected in COS-1 cells. […] Values were obtained from the mean±SD of at least three determinations. DU145 cells were transfected with the pSG5-AR and MMTV-Luc in the presence or absence of pSG5-ARA70. […] Values were obtained for the mean±SD of at least three determinations.

[3] = target: T1, wild-type AR; experiment: AR transcription, MMTV-Luc reporter in COS-1 cells co-transfected with pSG5-AR; type: cell-based; design: expressed in transfected cells; host or cells: COS-1
Procedure: as §1, §2

CC(=O)O[C@H]1C=C[C@@]2(C)C(=CC[C@@H]3[C@@H]2CC[C@@]2(C)[C@H]3CCC23OCCO3)C1 [ADEK, 3β-acetoxy-17,17-ethylenedioxyandrosta-1,5-diene]
RBA in COS-1 with AR [1]: 6.0 | DHT-induced mutant AR transcription suppressed to (DHT = 100%) ([2]; 1 nM DHT, dose-dependent): 17% | agonist / androgenic activity on mutant AR transcription (in words) ([2]; HF at 10 μM): lower than that of casodex | relative Luc activity (DHT control = 100%) ([3]; COS-1, 1 nM DHT, compound at 0.01 μM): about 75% | relative Luc activity (DHT control = 100%) ([3]; COS-1, 1 nM DHT, compound at 0.1 μM): about 60% | DHT-induced wild-type AR transcription suppressed to (relative Luc activity, DHT = 100%) ([3]; COS-1, 1 nM DHT, compound at 1 μM): 21% | androgenic activity on wild-type AR transcription (in words) ([3]; COS-1, compared with HF and casodex): lower androgenic activity
